Assay results published in patent US20050048011A1, “Skin preparation comprising a tocopherol derivative for external application” (priority 2001, published 2005).

What was measured:
[1] = system: three dimensional model of human skin tissue (TESTSKIN LSD-d, Toyobo K. K.); assay: Permeability of three dimensional model of human skin tissue and tocopherol conversion; conditions: for level of tocopherol in model skin: 1% solution, 6 hours
Experimental: 40 μL of a 1% solution of the below test substances 1) to 7) dissolved or dispersed in Dulbecco's PBS (−) were applied onto the tissue surface of a three dimensional model of human skin tissue (TESTSKIN™ LSD-d, Toyobo K. K.) and were cultured at 37° C. under 5% CO2 for 6 hours. After this, the solutions of the test substances were removed by aspiration and sampling was carried out.
The sample model skin was washed with Dulbecco's PBS (−) and the tissue surfaces onto which the test substances were applied were punched out with a φ 6 mm punch, and were homogenated in a HEPES buffer solution (pH 7.2), and quantitative analysis of the α-tocopherol and γ-tocopherol were carried out by high speed liquid chromatography. Quantitative analysis of the amount of protein in the model skin was carried out according to the Lowry method. • 1) α-tocopherol dimethylglycine ester hydrochloride • 2) α-tocopherol sarcosine ester hydrochloride • 3) αa-tocopherol glycine ester • 4) γ-tocopherol dimethylglycine ester hydrochloride • 5) γ-tocopherol sarcosine ester hydrochloride • 6) γ-tocopherol glycine ester • 7) tocopherol acetate

[2] = system: skin removed from the back of a hairless mouse; assay: Evaluation of skin penetrability (α-tocopherol amount in skin); conditions: 4 hours at 37° C.; for amount of α-tocopherol in the skin: Dulbecco's MEM containing 0.50 of test substance on epidermis side, not added: 10 nmol/g of skin; for increase of the α-tocopherol amount in treated skin: hairless mouse skin
[3] = system: keratinocytes of normal human epidermis; assay: Conversion to α-tocopherol in keratinocyte of human epidermis (cell spall solution); conditions: 37° C. for 2 hours; for increase of the α-tocopherol amount in cell spall solution: 1 mM; for amount of α-tocopherol liberated in the reaction solution: final concentration 1 mM, not added: lower than detection limit
Experimental: The cells were harvested and spalled by freeze-thawing method. To this cell spall solution, 1), 2), 3) or 4) was added to have a final concentration of 1 mM. The resulting solution was kept at 37° C. for 2 hours and then the amount of α-tocopherol liberated in the reaction solution was measured.

[4] = system: skin removed from the back of a hairless mouse; conditions: 4 hours at 37° C.; for amount of γ-tocopherol in the skin: Dulbecco's MEM containing 0.50 of test substance on epidermis side, not added: lower than detection limit; for increase of the γ-tocopherol amount in treated skin: hairless mouse skin
Experimental: Then, the amount of γ-tocopherol in the skin was measured.

[5] = system: keratinocytes of normal human epidermis; assay: Conversion to γ-tocopherol in keratinocyte of human epidermis (cell spall solution); conditions: 37° C. for 2 hours; for increase of the γ-tocopherol amount in cell spall solution: 1 mM; for amount of γ-tocopherol liberated in the reaction solution: final concentration 1 mM, not added: lower than detection limit
Experimental: The cells were harvested and spalled by freeze-thawing method. To this cell spall solution, 1), 2) or 3) was added to have a final concentration of 1 mM. The resulting solution was kept at 37° C. for 2 hours and then the amount of γ-tocopherol liberated in the reaction solution was measured.

[6] = 40 μL of 1% solution in Dulbecco's PBS (−) on tissue surface, 37° C., 5% CO2, 6 hours

CC(=O)Oc1c(C)c(C)c2c(c1C)CCC(C)(CCC[C@H](C)CCC[C@H](C)CCCC(C)C)O2 (stereo partly drawn) [Tocopherol acetate, reference compound]
the amount of α-tocopherol in model skin ([1]; human, 6 h, 1 %): 1.0 nmol/mg protein

Cc1c(C)c2c(c(C)c1OC(=O)CN(C)C)CCC(C)(CCCC(C)CCCC(C)CCCC(C)C)O2.Cl (stereo not drawn) [α-Tocopherol dimethylglycine ester hydrochloride]
level of tocopherol in model skin [1]: significantly increased
the amount of α-tocopherol in model skin [1, 6]: 2.8 nmol/mg protein
amount of α-tocopherol in the skin [2]: 17 nmol/g of skin
increase of the α-tocopherol amount in treated skin [2]: significant increase
increase of the α-tocopherol amount in cell spall solution [3]: significant increase
amount of α-tocopherol liberated in the reaction solution [3]: 6.9 nmol/ml of cell suspension

CNCC(=O)Oc1c(C)c(C)c2c(c1C)CCC(C)(CCCC(C)CCCC(C)CCCC(C)C)O2.Cl (stereo not drawn) [α-Tocopherol sarcosine ester hydrochloride]
level of tocopherol in model skin [1]: significantly increased
the amount of α-tocopherol in model skin [1, 6]: 3.9 nmol/mg protein
amount of α-tocopherol in the skin [2]: 20 nmol/g of skin
increase of the α-tocopherol amount in treated skin [2]: significant increase
increase of the α-tocopherol amount in cell spall solution [3]: significant increase
amount of α-tocopherol liberated in the reaction solution [3]: 26.9 nmol/ml of cell suspension

Cc1c(C)c2c(c(C)c1OC(=O)CN)CCC(C)(CCCC(C)CCCC(C)CCCC(C)C)O2 (stereo not drawn) [αa-tocopherol glycine ester, reference compound]
the amount of α-tocopherol in model skin [1, 6]: 1.2 nmol/mg protein

Cc1c(OC(=O)CN(C)C)cc2c(c1C)OC(C)(CCCC(C)CCCC(C)CCCC(C)C)CC2.Cl (stereo not drawn) [γ-Tocopherol dimethylglycine ester hydrochloride]
amount of γ-tocopherol in the skin [4]: 20 nmol/g of skin
increase of the γ-tocopherol amount in treated skin [4]: significant increase
level of tocopherol in model skin [1]: significantly increased
the amount of γ-tocopherol in model skin [1, 6]: 4.7 nmol/mg protein
increase of the γ-tocopherol amount in cell spall solution [5]: significant increase
amount of γ-tocopherol liberated in the reaction solution [5]: 28.1 nmol/ml of cell suspension

CNCC(=O)Oc1cc2c(c(C)c1C)OC(C)(CCCC(C)CCCC(C)CCCC(C)C)CC2.Cl (stereo not drawn) [γ-Tocopherol sarcosine ester hydrochloride]
amount of γ-tocopherol in the skin [4]: 2.1 nmol/g of skin
increase of the γ-tocopherol amount in treated skin [4]: significant increase
level of tocopherol in model skin [1]: significantly increased
the amount of γ-tocopherol in model skin [1, 6]: 5.5 nmol/mg protein
increase of the γ-tocopherol amount in cell spall solution [5]: significant increase
amount of γ-tocopherol liberated in the reaction solution [5]: 30.3 nmol/ml of cell suspension

Cc1c(OC(=O)CN)cc2c(c1C)OC(C)(CCCC(C)CCCC(C)CCCC(C)C)CC2 (stereo not drawn) [γ-tocopherol glycine ester, reference compound]
the amount of γ-tocopherol in model skin [1, 6]: 1.5 nmol/mg protein
